Values joined by “and” are separate entries in the source; they are usually repeats but may differ in a detail not shown here. Identical values can stand only once.
Columns and labels:
Format in all cases: cell-based
GPR174 [1] = target: T1, GPR174 (Homo sapiens, UniProt Q9BXC1); test: Cellular redistribution assay (CRA) for GPR174
From the text: One method for identifying compounds capable of modulating a receptor is using a cellular redistribution assay (“CRA”). Exemplary CRA methods are found in U.S. Pat. No. 7,309,576 issued to O'Dowd et al. and in O'Dowd et al., J. Biomol. Screen. 12:175-85,2007. […] Incorporation of the NLS alters the cellular localization of the GPCR, such that the majority of the NLS-modified receptor is present in the cell interior. An NLS-modified GPCR, when interacting with a functionally active compound, is mostly localized on the cell surface. Thus, it becomes possible to identify receptor modulators without knowledge of the endogenous ligand or a surrogate ligand.
The inventors have identified a number of compounds that inhibit GPR174 using a CRA assay similar to that described in U.S. Pat. No. 7,309,576 and in O'Dowd et al., J. Biomol. Screen. 12:175-85, 2007. These compounds are described in detail below.
(§1) The inventors used a CRA similar to that described in U.S. Pat. No. 7,309,576 and O'Dowd et al., J. Biomol. Screen. 12:175-85, 2007 to identify compounds that are capable of interacting with GPR174 using a library of approximately 370,000 chemical entities. Briefly described, the CRA assay described in U.S. Pat. No. 7,309,576 involves artificially inserting a NLS into the dopamine D1 receptor (DRD1), which allows the receptor to traffic from the cell membrane to the cell interior, and that the binding of antagonists to the receptor retained the receptor at the cell surface, while removal of the ligand allowed the receptor to continue to internalize from the cell surface. Both antagonists and agonists that selectively bound the receptor retained the receptor on the plasma membrane. GPR174 constructs were generated for use in a CRA-based compound screening assay. From this screen, the inventors initially identified compounds of formula I-VI, as described herein and included in Table 1.
Target sequence in this assay (Q9BXC1 1-292 limits assumed): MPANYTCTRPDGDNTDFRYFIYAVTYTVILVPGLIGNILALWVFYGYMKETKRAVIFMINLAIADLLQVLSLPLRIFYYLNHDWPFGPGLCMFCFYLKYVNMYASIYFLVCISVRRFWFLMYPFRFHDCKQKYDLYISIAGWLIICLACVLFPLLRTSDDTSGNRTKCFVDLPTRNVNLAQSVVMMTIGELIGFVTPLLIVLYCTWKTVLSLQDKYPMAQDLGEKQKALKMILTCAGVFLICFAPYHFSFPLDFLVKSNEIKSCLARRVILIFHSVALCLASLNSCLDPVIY

CHRM1 = test: CRA against CHRM1
From the text: as §1
The inventors also sought to validate that the compounds identified using the CRA are modulatory compounds. To this end, the above-described CRA was used to screen a library for compounds that interact with three control non-orphan receptors, and the results of this screen were compared to the results of screening the same library for compound that were identified using a Fluorometric Imaging Plate Reader (FLIPR) assay, a conventional technique commonly used to identify compounds interacting with non-orphan GPCRs signaling through Ca^++. Three non-orphan GPCRs—Muscarinic acetylcholine receptor M1 (CHRM1), Adrenergic receptor alpha 1a (ADRA1a), and Neuropeptide S receptor (NPSR)—were screened against a 10,000-compound GPCR-focused library. Thirty interacting compound “hits” were identified using the CRA, and eighty-one hits were identified using the FLIPR for the CHRM1 receptor; 9 CRA hits and 29 FLIPR hits for the NPS receptor were identified; and 110 CRA hits and 110 FLIPR hits for ADRA1a.
In addition, the CRA can also provide the relative potencies of compounds against the target receptor.

GPR174 [2] = target: T1, GPR174; test: CRE-Luc reporter Gs signaling assay with GPR174; set-up: host or cells: HEK293 or CHO cell lines (ATCC); details: for Gs pathway in the presence of GPR174 (CRE-Luc reporter): increasing concentrations of compound; for EC50: multiple values = separate experiments
Target sequence in this assay (Q9BXC1 whole entry): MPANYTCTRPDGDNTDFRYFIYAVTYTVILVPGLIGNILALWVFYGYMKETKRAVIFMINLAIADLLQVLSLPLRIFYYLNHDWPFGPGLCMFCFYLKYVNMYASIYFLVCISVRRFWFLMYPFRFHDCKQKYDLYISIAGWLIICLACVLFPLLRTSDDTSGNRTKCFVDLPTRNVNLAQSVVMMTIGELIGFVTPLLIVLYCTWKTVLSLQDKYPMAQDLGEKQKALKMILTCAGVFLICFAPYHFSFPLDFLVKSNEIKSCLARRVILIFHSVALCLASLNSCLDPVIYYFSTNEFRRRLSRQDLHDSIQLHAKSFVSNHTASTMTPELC

ADBR2 = target: T2, ADBR2 (Homo sapiens, UniProt P07550); test: CRE-Luc reporter assay with control receptor ADBR2
T2 construct: host or cells: HEK293 or CHO cell lines (ATCC)
Procedure: The DNA/lipofectamine 2000 mix (3000 μL) was incubated at room temperature for 30 minutes and then added into a 10 cm culture dish (Corning, NY) containing 70-90% confluent cultured cells, (HEK293 or CHO cell lines (ATCC, VA)), in 15 mL of media. […] The cells were further incubated at 37° C. for various times. The media were removed and the cells lysed.
Compounds were tested in the reporter system with increasing concentrations of GPR174-interacting compounds.
The DNA/lipofectamine 2000 mix (3000 μL) was incubated at room temperature for 30 minutes and then added into a 10 cm culture dish (Corning, NY) containing 70-90% confluent cultured cells, typically HEK293 or CHO cell lines (ATCC, VA), in 15 mL of media. […] Media (26 mL) were added to the detached cells and 120 μL of transfected cells were transferred to each well on a 96-well plate. Increasing concentration of each compound in DMSO (1.2 μl) was added to the cells after plating into the 96-well plate. The cells were further incubated at 37° C. for various times. The media were removed, and the cells lysed.
ADBR2 is a GPCR, like GPR174, that activates the Gs signaling pathway.

T2 sequence (P07550 whole entry): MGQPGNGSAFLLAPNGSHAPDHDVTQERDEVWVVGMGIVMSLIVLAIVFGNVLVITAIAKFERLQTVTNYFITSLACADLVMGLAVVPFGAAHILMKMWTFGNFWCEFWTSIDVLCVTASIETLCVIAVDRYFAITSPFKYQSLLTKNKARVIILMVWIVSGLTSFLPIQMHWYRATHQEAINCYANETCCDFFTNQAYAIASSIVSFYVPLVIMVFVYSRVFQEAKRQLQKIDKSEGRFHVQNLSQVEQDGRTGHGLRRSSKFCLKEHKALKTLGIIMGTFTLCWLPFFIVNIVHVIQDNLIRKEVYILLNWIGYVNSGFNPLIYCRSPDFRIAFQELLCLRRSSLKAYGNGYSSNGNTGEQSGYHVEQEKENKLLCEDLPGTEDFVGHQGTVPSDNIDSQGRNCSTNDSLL

SMILES	dose-response curve against GPR174 in the CRA (FIG. 5A) (GPR174 [1])	activity against CHRM1 in the CRA (FIG. 5B) (CHRM1)	Human GPR174 CRE Activity: nature of the compound (IA, antagonist, NM) (GPR174 [2]; pCRE-Luc reporter)	Gs pathway in the presence of ADBR2 (CRE-Luc reporter) (ADBR2)	Gs pathway in the presence of GPR174 (CRE-Luc reporter) (GPR174 [2])	Fold decrease in Gs signaling activity (GPR174 [2]; pCRE-Luc reporter)	EC50 (GPR174 [2]; pCRE-Luc reporter)	EC50 (GPR174 [1]; multiple values = separate experiments)
CC(=O)c1ccc(N2CCN(C(=O)c3ccc(F)cc3)CC2)c(F)c1 [compound 3]	show a dose-response curve	do not show any activity	Antagonist or allostetic modulator					
CC(=O)N1CCN(c2cc(N3CCCCC3)c(F)cc2[N+](=O)[O-])CC1 [compound 2]	show a dose-response curve	do not show any activity		did not inhibit	inhibited	1.7 fold	0.4 µM and 0.3 µM	
CCOC(=O)N1CCN(c2cc(N3CCC(C)CC3)c(F)cc2[N+](=O)[O-])CC1 [compound 1]	show a dose-response curve	do not show any activity		did not inhibit	inhibited	2.9 fold	0.4 µM and 0.8 µM	2.1 µM
